Target: VR (Homo sapiens, UniProt Q8NER1)
Assay: not given
Details: typical value, non-selective cation channel blocker binding to VR; cited from earlier work

VR, sequence (Q8NER1 whole entry): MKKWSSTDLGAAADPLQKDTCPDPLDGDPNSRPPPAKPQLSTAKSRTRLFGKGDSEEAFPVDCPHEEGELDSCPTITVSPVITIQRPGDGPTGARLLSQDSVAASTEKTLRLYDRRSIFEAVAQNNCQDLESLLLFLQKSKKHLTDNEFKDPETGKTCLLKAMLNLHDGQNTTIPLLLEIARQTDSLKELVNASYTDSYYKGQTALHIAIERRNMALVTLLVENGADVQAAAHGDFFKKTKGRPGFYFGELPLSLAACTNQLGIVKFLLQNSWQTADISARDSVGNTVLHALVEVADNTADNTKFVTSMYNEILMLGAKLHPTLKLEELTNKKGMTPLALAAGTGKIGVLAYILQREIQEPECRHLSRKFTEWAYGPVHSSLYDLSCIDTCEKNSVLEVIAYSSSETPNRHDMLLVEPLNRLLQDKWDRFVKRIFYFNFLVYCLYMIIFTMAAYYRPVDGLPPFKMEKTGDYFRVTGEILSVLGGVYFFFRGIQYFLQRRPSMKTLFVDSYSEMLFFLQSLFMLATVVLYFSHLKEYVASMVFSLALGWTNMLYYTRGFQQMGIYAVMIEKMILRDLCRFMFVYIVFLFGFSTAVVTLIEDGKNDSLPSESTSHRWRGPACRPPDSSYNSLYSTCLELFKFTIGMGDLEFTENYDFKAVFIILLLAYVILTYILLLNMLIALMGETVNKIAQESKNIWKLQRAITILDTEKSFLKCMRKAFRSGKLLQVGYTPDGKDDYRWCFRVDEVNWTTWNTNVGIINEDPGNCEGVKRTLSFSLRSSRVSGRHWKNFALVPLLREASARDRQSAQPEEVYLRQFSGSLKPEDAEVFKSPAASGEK

Compound	Ki
Cl.Cl.Cl.Cl.Cl.Cl.N.N.N.N.N.N.N.N.N.N.N.N.N.N.[O-2].[O-2].[Ru+3].[Ru+3].[Ru+4] [ruthenium red]	≥ 140000 nM

Target: T1, human capsaicin receptor (Homo sapiens, UniProt Q8NER1)
T1 construct: expressed in transfected cells
Assay: Calcium mobilization assay, determination of antagonist activity (Example 6)
Type: cell-based
Details: Table III; assay provided in Example 6; cells expressing human capsaicin receptor, capsaicin at EC50
Outline: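 Stable HEK293 clones expressing full-length human capsaicin receptor, loaded with Fluo-3 AM in KRH buffer pH 7.4 (1–2 h, 37 °C). Test compound (1–5 μM final) preincubated 0.5–6 h at room temperature in the dark, then capsaicin added at its EC50. FLIPR/Fluoroskan calcium signal; IC50 as concentration halving the capsaicin response.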

T1 sequence (Q8NER1 whole entry): as above

IC50	Compound
< 1000 nM	CCC(C)CNc1cc(C(F)(F)F)c(-c2cnc3c(Nc4ccc(C(F)(F)F)cn4)ccnc3n2)nn1 (stereo not drawn) [Compound 154, 3-{6-[(2-methylbutyl)amino]-4-(trifluoromethyl)pyridazin-3-yl}-N-[5-(trifluoromethyl)pyridin-2-yl]pyrido[2,3-b]pyrazin-8-amine]
< 1000 nM	CNC(=O)CN(C)c1cc(C(F)(F)F)c(-c2cnc3c(Nc4ccc(C(F)(F)F)cn4)ccnc3n2)nn1 [Compound 58, N,N2-dimethyl-N2-[5-(trifluoromethyl)-6-(8-{[5-(trifluoromethyl)pyridin-2-yl]amino}pyrido[2,3-b]pyrazin-3-yl)pyridazin-3-yl]glycinamide]
< 1000 nM	CN(CCOCCO)c1cc(C(F)(F)F)c(-c2cnc3c(Nc4ccc(C(F)(F)F)cn4)ccnc3n2)nn1 [Compound 67, 2-(2-{methyl[5-(trifluoromethyl)-6-(8-{[5-(trifluoromethyl)pyridin-2-yl]amino}pyrido[2,3-b]pyrazin-3-yl)pyridazin-3-yl]amino}ethoxy)ethanol]
< 1000 nM	FC(F)(F)c1ccc(Nc2ccnc3nc(-c4nnc(NCc5cccnc5)cc4C(F)(F)F)cnc23)nc1 [Compound 78, 3-{6-[(pyridin-3-ylmethyl)amino]-4-(trifluoromethyl)pyridazin-3-yl}-N-[5-(trifluoromethyl)pyridin-2-yl]pyrido[2,3-b]pyrazin-8-amine]
< 1000 nM	FC(F)(F)c1ccc(Nc2ccnc3nc(-c4nnc(NC5CCCC5)cc4C(F)(F)F)cnc23)nc1 [Compound 109, 3-[6-(cyclopentylamino)-4-(trifluoromethyl)pyridazin-3-yl]-N-[5-(trifluoromethyl)pyridin-2-yl]pyrido[2,3-b]pyrazin-8-amine]
< 1000 nM	CN1CCCC1CCOc1cc(C(F)(F)F)c(-c2cnc3c(Nc4ccc(C(F)(F)F)cn4)ccnc3n2)nn1 (stereo not drawn) [Compound 65, 3-{6-[2-(1-methylpyrrolidin-2-yl)ethoxy]-4-(trifluoromethyl)pyridazin-3-yl}-N-[5-(trifluoromethyl)pyridin-2-yl]pyrido[2,3-b]pyrazin-8-amine]
< 1000 nM	CCOC(=O)CN(C)c1cc(C(F)(F)F)c(-c2cnc3c(Nc4ccc(C(F)(F)F)cn4)ccnc3n2)nn1 [Compound 187, ethyl N-methyl-N-[5-(trifluoromethyl)-6-(8-{[5-(trifluoromethyl)pyridin-2-yl]amino}pyrido[2,3-b]pyrazin-3-yl)pyridazin-3-yl]glycinate]
< 1000 nM	CN(CC(N)=O)c1cc(C(F)(F)F)c(-c2cnc3c(Nc4ccc(C(F)(F)F)cn4)ccnc3n2)nn1 [Compound 57, N2-methyl-N2-[5-(trifluoromethyl)-6-(8-{[5-(trifluoromethyl)pyridin-2-yl]amino}pyrido[2,3-b]pyrazin-3-yl)pyridazin-3-yl]glycinamide]
< 1000 nM	OCCNc1cc(C(F)(F)F)c(-c2cnc3c(Nc4ccc(C(F)(F)F)cn4)ccnc3n2)nn1 [Compound 168, 2-{[5-(trifluoromethyl)-6-(8-{[5-(trifluoromethyl)pyridin-2-yl]amino}pyrido[2,3-b]pyrazin-3-yl)pyridazin-3-yl]amino}ethanol]
< 1000 nM	CC(C)N(CCO)c1cc(C(F)(F)F)c(-c2cnc3c(Nc4ccc(C(F)(F)F)cn4)ccnc3n2)nn1 [Compound 197, 2-{isopropyl[5-(trifluoromethyl)-6-(8-{[5-(trifluoromethyl)pyridin-2-yl]amino}pyrido[2,3-b]pyrazin-3-yl)pyridazin-3-yl]amino}ethanol]
< 1000 nM	CCCCCNc1cc(C(F)(F)F)c(-c2cnc3c(Nc4ccc(C(F)(F)F)cn4)ccnc3n2)nn1 [Compound 153, 3-[6-(pentylamino)-4-(trifluoromethyl)pyridazin-3-yl]-N-[5-(trifluoromethyl)pyridin-2-yl]pyrido[2,3-b]pyrazin-8-amine]
